Molecular target: T1, human somatostatin receptor subtype 2 (Homo sapiens, UniProt P30874)
T1 construct: expressed in transfected cells; host or cells: CHO (Chinese hamster ovary) cells, G-418 selected
Experiment: cAMP assay (functional assay for SSTR2 agonists)
Type: cell-based
Details: CHO cells expressing human SSTR2; intracellular cAMP with forskolin, HTRF; read-out: SSTR2a EC50
From the text: Functional Assay for SSTR2 Agonists
General overview: All five SSTR subtypes are Gi coupled G-protein coupled receptors (GPCRs) that lead to decreases in intracellular cyclic AMP (cAMP) when activated by an agonist. Therefore, measurement of intracellular cAMP levels can be used to assess whether compounds of the invention are agonists of SSTR subtypes (John Kelly, Troy Stevens, W. Joseph Thompson, and Roland Seifert, Current Protocols in Pharmacology, 2005, 2.2.1-2.2). One example of an intracellular cAMP assay is described below.
One day prior to the assay, 40,000 Chinese hamster ovary (CHO) cells expressing the human somatostatin receptor subtype 2 are plated in each well of a 96-well tissue culture plate in DM-MEM growth media (Gibco) with the following additives: 10% fetal bovine serum (Gibco), 100 U/mL penicillin (Gibco), 100 ug/mL streptomycin (Gibco), 10 mM HEPES (Gibco), 1.2 mM sodium hydroxide, 0.5 mg/mL G-418 (Gibco)). The cells are cultured overnight at 37° C., 5% CO2 and 95% humidity. On the day of the assay, the media is aspirated and the cells are washed with 1× Dulbecco's phosphate buffered saline (Gibco). Next, 5 μL of assay buffer (1× Earle's Balanced Salt Solution (Gibco), 5 mM MgCl2, 10 mM HEPES, 0.1% bovine serum albumin, 0.2 mM 3-Isobutyl-1-methylxanthine (IBMX, Biomol Research Labs)) and forskolin is added. Various dilutions of the compounds of the invention are prepared in assay buffer and 5 μL of the dilutions are added to the cultured cells and incubated for 15 minutes at 37° C. […] 10 μL of lysis buffer (HRTF cAMP kit, Cisbio) containing cAMP detection and visualization antibodies are added and the assay is allowed incubate for 1-24 hours at room temperature. The intracellular cAMP concentrations are then measured using a commercially available detection kit (for example, the cAMP HTRF kit, Cisbio). The measured intracellular cAMP concentrations are plotted vs. the concentration of the compounds of the invention and the EC50 of the compounds are calculated using standard methods.

T1 sequence (P30874 whole entry): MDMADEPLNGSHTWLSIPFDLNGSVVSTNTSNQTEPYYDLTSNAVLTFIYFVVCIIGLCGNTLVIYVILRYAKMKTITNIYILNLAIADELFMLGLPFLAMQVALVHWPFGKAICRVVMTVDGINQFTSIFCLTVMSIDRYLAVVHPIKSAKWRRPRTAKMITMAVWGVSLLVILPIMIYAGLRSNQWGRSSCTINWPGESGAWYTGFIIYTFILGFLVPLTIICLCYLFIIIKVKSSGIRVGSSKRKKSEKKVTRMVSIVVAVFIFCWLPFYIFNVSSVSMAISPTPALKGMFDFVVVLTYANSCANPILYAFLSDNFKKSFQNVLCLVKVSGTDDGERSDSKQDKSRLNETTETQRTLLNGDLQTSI

| Structure (SMILES) | EC50 |
| --- | --- |
| Cc1cc(Cl)cc(N2C=Nc3cc(C)c(-c4cc(F)cc(C(N)=O)c4)cc3C2C(=O)N(C)C[C@@H]2CCCN2)c1 (single isomer, unassigned) [Compound 3-1] | < 0.1 µM |
| Cc1cc(Cl)cc(N2C=Nc3cc(C)c(-c4cc(F)ccc4O)cc3C2C(=O)N(C)C[C@@H]2CCCN2)c1 (single isomer, unassigned) [Compound 3-2] | < 0.1 µM |
| Cc1cc(C)cc(N2C=Nc3ccc(-c4cccc(O)c4)cc3C2C(=O)N(C)C[C@H](C)N)c1 (stereo partly drawn) [Compound 1-1, N-[(2S)-2-aminopropyl]-3-(3,5-dimethylphenyl)-6-(3-hydroxyphenyl)-N-methyl-3,4-dihydroquinazoline-4-carboxamide] | 0.1 to 1 µM |
| Cc1cc(C)cc(N2C=Nc3ccc(-c4cccc(O)c4)cc3C2C(=O)N(C)CCN)c1 (centres unmarked) [Compound 1-2, N-(2-aminoethyl)-3-(3,5-dimethylphenyl)-6-(3-hydroxyphenyl)-N-methyl-3,4-dihydroquinazoline-4-carboxamide] | 0.1 to 1 µM |
| Cc1cc(C)cc(N2C=Nc3cc(Cl)c(-c4cccc(O)c4)cc3C2C(=O)NCCN)c1 (centres unmarked) [Compound 1-3, N-(2-aminoethyl)-7-chloro-3-(3,5-dimethylphenyl)-6-(3-hydroxyphenyl)-3,4-dihydroquinazoline-4-carboxamide] | 1 to 10 µM |
| Cc1cc(C)cc(N2C=Nc3cc(Cl)c(-c4cccc(O)c4)cc3C2C(=O)N(C)C[C@H](C)N)c1 (stereo partly drawn) [Compound 1-4, N-[(2S)-2-aminopropyl]-7-chloro-3-(3,5-dimethylphenyl)-6-(3-hydroxyphenyl)-N-methyl-3,4-dihydroquinazoline-4-carboxamide] | < 0.1 µM |
| CC[C@H](N)CN(C)C(=O)C1c2cc(-c3cccc(O)c3)c(Cl)cc2N=CN1c1cc(C)cc(C)c1 (stereo partly drawn) [Compound 1-5, N-[(2S)-2-aminobutyl]-7-chloro-3-(3,5-dimethylphenyl)-6-(3-hydroxyphenyl)-N-methyl-3,4-dihydroquinazoline-4-carboxamide] | < 0.1 µM |
| CC[C@H](N)CN(C)C(=O)C1c2cc(-c3cc(O)cc(F)c3)c(Cl)cc2N=CN1c1cc(C)cc(C)c1 (stereo partly drawn) [Compound 1-6, N-[(2S)-2-aminobutyl]-7-chloro-3-(3,5-dimethylphenyl)-6-(3-fluoro-5-hydroxyphenyl)-N-methyl-3,4-dihydroquinazoline-4-carboxamide] | < 0.1 µM |
| CC[C@H](N)CN(C)C(=O)C1c2cc(-c3cc(C)cc(O)c3)c(Cl)cc2N=CN1c1cc(C)cc(C)c1 (stereo partly drawn) [Compound 1-7, N-[(2S)-2-aminobutyl]-7-chloro-3-(3,5-dimethylphenyl)-6-(3-hydroxy-5-methylphenyl)-N-methyl-3,4-dihydroquinazoline-4-carboxamide] | < 0.1 µM |
| CC[C@H](N)CN(C)C(=O)C1c2cc(-c3cc(O)ccc3C)c(Cl)cc2N=CN1c1cc(C)cc(C)c1 (stereo partly drawn) [Compound 1-8, N-[(2S)-2-aminobutyl]-7-chloro-3-(3,5-dimethylphenyl)-6-(5-hydroxy-2-methylphenyl)-N-methyl-3,4-dihydroquinazoline-4-carboxamide] | < 0.1 µM |
| CC[C@H](N)CN(C)C(=O)C1c2cc(-c3cccc(O)c3)c(C)cc2N=CN1c1cc(C)cc(C)c1 (stereo partly drawn) [Compound 1-9, N-[(2S)-2-aminobutyl]-3-(3,5-dimethylphenyl)-6-(3-hydroxyphenyl)-N,7-dimethyl-3,4-dihydroquinazoline-4-carboxamide] | < 0.1 µM |
| CC[C@H](N)CN(C)C(=O)C1c2cc(-c3cc(O)ccc3F)c(C)cc2N=CN1c1cc(C)cc(C)c1 (stereo partly drawn) [Compound 1-10, N-[(2S)-2-aminobutyl]-3-(3,5-dimethylphenyl)-6-(2-fluoro-5-hydroxyphenyl)-N,7-dimethyl-3,4-dihydroquinazoline-4-carboxamide] | < 0.1 µM |
| CC[C@H](N)CN(C)C(=O)C1c2cc(-c3cccc(O)c3F)c(C)cc2N=CN1c1cc(C)cc(C)c1 (stereo partly drawn) [Compound 1-11, N-[(2S)-2-aminobutyl]-3-(3,5-dimethylphenyl)-6-(2-fluoro-3-hydroxyphenyl)-N,7-dimethyl-3,4-dihydroquinazoline-4-carboxamide] | < 0.1 µM |
| Cc1cc(C)cc(N2C=Nc3cc(C)c(-c4cccc(O)c4)cc3C2C(=O)N(C)C[C@@H]2CCCN2)c1 (stereo partly drawn) [Compound 1-12, 3-(3,5-dimethylphenyl)-6-(3-hydroxyphenyl)-N,7-dimethyl-N-[(2S)-pyrrolidin-2-ylmethyl]-3,4-dihydroquinazoline-4-carboxamide] | < 0.1 µM |
| CC[C@H](N)CN(C)C(=O)C1c2cc(-c3cccc(O)c3)c(C)cc2N=CN1c1cc(C)cc(Cl)c1 (stereo partly drawn) [Compound 1-13, N-[(2S)-2-aminobutyl]-3-(3-chloro-5-methylphenyl)-6-(3-hydroxyphenyl)-N,7-dimethyl-3,4-dihydroquinazoline-4-carboxamide] | < 0.1 µM |
| CC[C@H](N)CN(C)C(=O)C1c2cc(-c3cc(O)c(F)cc3F)c(C)cc2N=CN1c1cc(C)cc(C)c1 (stereo partly drawn) [Compound 1-14, N-[(2S)-2-aminobutyl]-6-(2,4-difluoro-5-hydroxyphenyl)-3-(3,5-dimethylphenyl)-N,7-dimethyl-3,4-dihydroquinazoline-4-carboxamide] | 0.1 to 1 µM |
| CC[C@H](N)CN(C)C(=O)C1c2cc(-c3c(F)ccc(O)c3F)c(C)cc2N=CN1c1cc(C)cc(C)c1 (stereo partly drawn) [Compound 1-15, N-[(2S)-2-aminobutyl]-6-(2,6-difluoro-3-hydroxyphenyl)-3-(3,5-dimethylphenyl)-N,7-dimethyl-3,4-dihydroquinazoline-4-carboxamide] | < 0.1 µM |
| CC[C@H](N)CN(C)C(=O)C1c2cc(-c3cc(O)ccc3Cl)c(C)cc2N=CN1c1cc(C)cc(C)c1 (stereo partly drawn) [Compound 1-16, N-[(2S)-2-aminobutyl]-6-(2-chloro-5-hydroxyphenyl)-3-(3,5-dimethylphenyl)-N,7-dimethyl-3,4-dihydroquinazoline-4-carboxamide] | < 0.1 µM |
| Cc1cc(Cl)cc(N2C=Nc3cc(C)c(-c4cccc(O)c4)cc3C2C(=O)N(C)C[C@@H]2CCCN2)c1 (stereo partly drawn) [Compound 1-17, 3-(3-chloro-5-methylphenyl)-6-(3-hydroxyphenyl)-N,7-dimethyl-N-[(2S)-pyrrolidin-2-ylmethyl]-3,4-dihydroquinazoline-4-carboxamide] | < 0.1 µM |
| Cc1cc(Cl)cc(N2C=Nc3cc(C)c(-c4cccc(O)c4)cc3C2C(=O)N(C)C[C@H]2CCCN2)c1 (stereo partly drawn) [Compound 1-18, 3-(3-chloro-5-methylphenyl)-6-(3-hydroxyphenyl)-N,7-dimethyl-N-[(2R)-pyrrolidin-2-ylmethyl]-3,4-dihydroquinazoline-4-carboxamide] | < 0.1 µM |
| Cc1cc(Cl)cc(N2C=Nc3cc(C)c(-c4cc(O)ccc4F)cc3C2C(=O)N(C)C[C@@H]2CCCN2)c1 (stereo partly drawn) [Compound 1-19, 3-(3-chloro-5-methylphenyl)-6-(2-fluoro-5-hydroxyphenyl)-N,7-dimethyl-N-[(2S)-pyrrolidin-2-ylmethyl]-3,4-dihydroquinazoline-4-carboxamide] | < 0.1 µM |
| Cc1cc(Cl)cc(N2C=Nc3cc(C)c(-c4cc(O)ccc4Cl)cc3C2C(=O)N(C)C[C@@H]2CCCN2)c1 (stereo partly drawn) [Compound 1-20, 6-(2-chloro-5-hydroxyphenyl)-3-(3-chloro-5-methylphenyl)-N,7-dimethyl-N-[(2S)-pyrrolidin-2-ylmethyl]-3,4-dihydroquinazoline-4-carboxamide] | < 0.1 µM |
| Cc1cc(Cl)cc(N2C=Nc3cc(C)c(-c4cc(O)ccc4C#N)cc3C2C(=O)N(C)C[C@@H]2CCCN2)c1 (stereo partly drawn) [Compound 1-21, 3-(3-chloro-5-methylphenyl)-6-(2-cyano-5-hydroxyphenyl)-N,7-dimethyl-N-[(2S)-pyrrolidin-2-ylmethyl]-3,4-dihydroquinazoline-4-carboxamide] | < 0.1 µM |
| COc1cc(F)cc(N2C=Nc3cc(C)c(-c4cc(O)ccc4F)cc3C2C(=O)N(C)C[C@@H]2CCCN2)c1 (stereo partly drawn) [Compound 1-22, 6-(2-fluoro-5-hydroxyphenyl)-3-(3-fluoro-5-methoxyphenyl)-N,7-dimethyl-N-[(2S)-pyrrolidin-2-ylmethyl]-3,4-dihydroquinazoline-4-carboxamide] | < 0.1 µM |
| Cc1cc(Cl)cc(N2C=Nc3cc(C)c(-c4cc(O)ccc4Cl)cc3C2C(=O)N(C)C[C@@H]2CCCCN2)c1 (stereo partly drawn) [Compound 1-23, 6-(2-chloro-5-hydroxyphenyl)-3-(3-chloro-5-methylphenyl)-N,7-dimethyl-N-[(2S)-piperidin-2-ylmethyl]-3,4-dihydroquinazoline-4-carboxamide] | < 0.1 µM |
| Cc1cc(Cl)cc(N2C=Nc3cc(C)c(-c4cccc(C(N)=O)c4)cc3C2C(=O)N(C)C[C@@H]2CCCCN2)c1 (stereo partly drawn) [Compound 1-24, 6-(3-carbamoylphenyl)-3-(3-chloro-5-methylphenyl)-N,7-dimethyl-N-[(2S)-piperidin-2-ylmethyl]-3,4-dihydroquinazoline-4-carboxamide] | < 0.1 µM |
